For series [1], the system named is M. tuberculosis H37Rv. In words: tuberculostatic activity, broth microdilution MIC (Alamar blue). The format is cell-based, Mycobacterium tuberculosis. The note with it: Mycobacterium tuberculosis, 504 h; M. tuberculosis H37Rv; 21 days 37 °C, Middlebrook 7H9 + OADC; read-out: Minimal inhibitory concentration. For orientation: In broth dilution the organism is exposed to a series of concentrations in liquid medium.

Series [2] concerns M. tuberculosis SIR Ciprofloxacin susceptible 168/22. The series is described as above. The note with it: Mycobacterium tuberculosis; read-out: Minimal inhibitory concentration. The format is cell-based, Mycobacterium tuberculosis.
The subject of series [3] is Mycobacterium tuberculosis strains (H37Rv, 22/22, 168/22). In words: synergism-antagonism evaluation, summary over all strains. The format is cell-based.
Series [4] is described as follows: IAM-HPLC affinity to phospholipids (CHI protocol). The format is physicochemical.
Another series is described as follows: physchem. The class given is physicochemical. An excerpt: For HPLC analyses Prominence-1 LC-2030C 3D HPLC system (Shimadzu, Japan) equipped with a DAD detector and controlled by LabSolution system (version 5.90 Shimadzu, Japan) was used. Two different chromatography columns packed with surface-modified silica were utilized in this study: • Octyldecylsilane (C18 Hypersil GOLD™; 50 mm × 4.6 mm; 5.0 µm; Thermo Scientific, USA) • Immobilized artificial membrane (IAM.PC.DD2; 10 × 4.6 mm × 10.0 µm; Regis Technologies; USA).
Both columns were equipped with guard precolumn containing the same silica-modified bed as the main column. All measurements were carried out using the protocol proposed by Valko[19] and co-workers and adopted in our laboratory. Briefly, methods developed by Valko offered the determination of Chromatographic Hydrophobicity Index (CHI) indices using one gradient elution experiment. Ammonium acetate buffer (50 mM, pH 7.4) and acetonitrile (ACN) were used as the mobile phase at a 1.5 mL/min flow rate. The gradient range varies depending on the column type: • For C18 starting from 2 to 98% ACN in 5.25 min. The maximum concentration of ACN was applied for 1.75 min. • For IAM starting from 0 to 85% ACN in 5.25 min. The maximum concentration of ACN was used for 0.5 min.
During the chromatographic separation, the temperature was stable at 30 °C. […] The injected volume was 10 μL, whereas the concentration of solutes was at level 100 μg/mL. All studied compounds were dissolved in DMSO. Each chromatographic experiments run in triplicate. […] Retention times for studied molecules and reference standards are collected in supplementary materials, Tables S1, S2 and S3, respectively.
Next, the CHIC18 values were converted into lipophilicity indices CHI log D using Eq. […]

Series [5] has as its system human colon cancer cells (HCT-116). The note with it: cited from earlier work.
The subject of series [6] is human immortal keratinocyte cell line (HaCaT). The note with it: cited from earlier work.
The conditions of series [7]: cited from earlier work.
For series [8] the following is noted: cited from earlier work. This is another data set of the same source.
The test system of series [9] is M. tuberculosis H37Rv. The class given is cell-based, Mycobacterium tuberculosis. Conditions: derivative 6 at 1/2 MIC.
Where [10] appears, read: determined in an earlier study ref 15.

Molecules are shown by their SMILES. Converted amounts (≈) assume the structure as drawn. Read-outs that look alike come from different tables or passages of the source.

With `CC(C)[C@@H]1CC[C@@H](C)C[C@H]1OC(=O)CCCCCN1CCN(c2cc3c(cc2F)c(=O)c(C(=O)O)cn3C2CC2)CC1` [Compound 6, 1‐cyclopropyl‐6‐fluoro‐7‐{4‐[6‐((1R,2S,5R)‐2‐isopropyl‐5‐methylcyclohexyloxy)‐6‐oxohexyl]piperazin‐1‐yl}‐4‐oxo‐1,4‐dihydroquinoline‐3‐carboxylic acid], the MIC with M. tuberculosis H37Rv [1] was 1000 ng/mL. The MIC in [2] is 1000 ng/mL (≈ 1.71 µM). In series [3], the “FICI values, derivative 6 with Linezolid” value is 1.0 and the “interaction type from FICI” value was “indifference (key: synergism (FICI ≤ 0.5); indifference (> 0.5 FICI ≤ 4); antagonism (FICI > 4))”. For the same molecule, the “log kIAM” value in series [4] (0.045*CHIIAM+0.42) came out at 2.74. The molecule also came in with a CHIIAM in [4] (IAM column, pH 7.4, ACN gradient) of 51.47. Besides, the CHIC18 in the series “physchem” (C18 column, pH 7.4, ACN gradient) is reported as 139.48. Besides, in the series “physchem” (pH 7.4), the chromatographic logD (usually a lipophilicity value derived from retention on a column) was 5.86. Moreover, in series [5] (HCT-116, MTT assay ref 10), the IC50 (as a rule, the concentration that gives 50% inhibition) was 29.5 ± 2.1 µM. For the same molecule, in series [5] (HCT-116 versus HaCaT ref 10), the selectivity index is 3.4. In [6], the cytotoxic effect entry is “no cytotoxic effect”.

For the molecule `O=C(O)c1cn(C2CC2)c2cc(N3CCNCC3)c(F)cc2c1=O` [Ciprofloxacin, reference compound], in series [7] (setting [10]), the CHIIAM is listed as 19.70 and the “log kIAM” value is given as 1.31. Moreover, the CHIC18 in [8] (setting [10]) is listed as 35.61.

`CC(=O)NC[C@H]1CN(c2ccc(N3CCOCC3)c(F)c2)C(=O)O1` [Linezolid, reference compound]: the MIC in the series on M. tuberculosis H37Rv [1] was 3 ng/mL; in series [2], 7 ng/mL (≈ 0.0207 µM). In addition, the “MIC for reference drug in the presence of derivative 6” value in the series with M. tuberculosis H37Rv [9] was 1.5 ng/mL.

On to `CCCC(=O)c1ccccc1` [Butyrophenone], for which, in [7] (calibration set on the IAM column, CHI index, Table S3 ref 19), the CHIIAM was 32. Further, the CHIC18 in series [8] (calibration set on the C18 column, literature CHI index, Table S2 ref 19) is 87,5.

Source of the values: publication PMC10539350 (Scientific Reports, 2023).
